According to the supplement of paper PMC10307832:

What was measured:
Experiment in all cases: relative viability (nuclei count vs DMSO), 5 days (fraction); higher = more cells survive
BGJ398 + Foretinib = compound: CCN1CCN(c2ccc(Nc3cc(N(C)C(=O)Nc4c(Cl)c(OC)cc(OC)c4Cl)ncn3)cc2)CC1 [BGJ398] + COc1cc2c(Oc3ccc(NC(=O)C4(C(=O)Nc5ccc(F)cc5)CC4)cc3F)ccnc2cc1OCCCN1CCOCC1 [Foretinib] (partner 0.25 µM)
Method in brief: (§1)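 Lung cancer cell lines were pin-tool dosed in 1536-well plates on the day after seeding, with either a lone drug or a fixed anchor-drug dose plus five library-drug doses (not always all listed) in √10 steps. Nuclei were counted on 4× images after 5 days. Relative viability is the ratio of treated-well to vehicle-well nuclei counts, with each value a median of duplicate plates.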

[1] = compound: C1=CC2=NC=CN=C2C=C1/C=C/3\C(=O)NC(=O)S3 + Cc1nc(NC(=O)N2CCC[C@H]2C(N)=O)sc1-c1ccnc(C(C)(C)C(F)(F)F)c1 [Alpelisib] (partner 2 µM)
Method in brief: as §1

BGJ398 + Phenformin = compound: CCN1CCN(c2ccc(Nc3cc(N(C)C(=O)Nc4c(Cl)c(OC)cc(OC)c4Cl)ncn3)cc2)CC1 [BGJ398] + N=C(N)NC(=N)NCCc1ccccc1 [Phenformin] (partner 250 µM)
Method in brief: as §1

[2] = compound: C1=CC2=NC=CN=C2C=C1/C=C/3\C(=O)NC(=O)S3 + Cc1nc(Nc2ncc(C(=O)Nc3c(C)cccc3Cl)s2)cc(N2CCN(CCO)CC2)n1 [Dasatinib] (partner 0.075 µM)
Method in brief: as §1

| Cell Line | relative viability (BGJ398 + Foretinib; first compound 0.01 µM) | relative viability (BGJ398 + Foretinib; first compound 0.03162 µM) | relative viability (BGJ398 + Foretinib; first compound 0.1 µM) | relative viability (BGJ398 + Foretinib; first compound 0.3162 µM) | relative viability (BGJ398 + Foretinib; first compound 1 µM) | relative viability ([1]; first compound 0.02 µM) | relative viability ([1]; first compound 0.06325 µM) | relative viability ([1]; first compound 0.2 µM) | relative viability ([1]; first compound 0.6325 µM) | relative viability ([1]; first compound 2 µM) | relative viability (BGJ398 + Phenformin; first compound 0.01 µM) | relative viability (BGJ398 + Phenformin; first compound 0.03162 µM) | relative viability (BGJ398 + Phenformin; first compound 0.1 µM) | relative viability (BGJ398 + Phenformin; first compound 0.3162 µM) | relative viability (BGJ398 + Phenformin; first compound 1 µM) | relative viability ([2]; first compound 0.02 µM) | relative viability ([2]; first compound 0.06325 µM) | relative viability ([2]; first compound 0.2 µM) | relative viability ([2]; first compound 0.6325 µM) | relative viability ([2]; first compound 2 µM) |
| --- | --- | --- | --- | --- | --- | --- | --- | --- | --- | --- | --- | --- | --- | --- | --- | --- | --- | --- | --- | --- |
| HCC-78 | 0.563 | 0.597 | 0.504 | 0.614 | 0.549 | 0.287 | 0.304 | 0.378 | 0.335 | 0.294 | 0.67 | 0.609 | 0.735 | 0.731 | 0.607 | 0.381 | 0.705 | 0.517 | 0.392 | 0.184 |
| HCC-366 | 0.924 | 0.883 | 0.944 | 0.89 | 1.08 | 0.391 | 0.488 | 0.432 | 0.361 | 0.259 | 0.632 | 0.672 | 0.6 | 0.613 | 0.673 | 0.613 | – | 0.645 | 0.552 | 0.0998 |
| HCC-827 | 0.926 | – | 1.02 | 1 | 1.13 | 1.05 | 0.947 | 1.04 | 0.925 | 0.911 | 0.323 | – | 0.432 | 0.317 | 0.413 | 0.338 | 0.194 | 0.267 | 0.301 | 0.266 |
| HOP-62 | 0.939 | 1.13 | 1.18 | 1.19 | 1.07 | 0.898 | 1.02 | 1.11 | 1.09 | 1.05 | 0.649 | 0.704 | 0.737 | 0.604 | 0.773 | 0.651 | 0.736 | 0.605 | 0.621 | 0.503 |
| IA-LM | 1.2 | 1.08 | 1.42 | 1.15 | 1.14 | 0.586 | 0.713 | 0.64 | 0.749 | 0.764 | – | – | – | – | – | – | – | – | – | – |
| LC-2-ad | 1.05 | 0.839 | 1.02 | 0.963 | 0.99 | 0.785 | 0.975 | 0.832 | 0.812 | 0.686 | 0.58 | 0.604 | 0.655 | 0.573 | 0.503 | 0.843 | 0.528 | 0.746 | 0.622 | 0.256 |
| LCLC-97TM1 | 0.813 | 0.923 | 0.947 | 0.925 | 1.03 | 0.234 | 0.267 | 0.294 | 0.268 | 0.178 | 0.393 | 0.446 | 0.442 | 0.429 | 0.44 | 0.974 | 0.762 | 0.775 | 0.8 | 0.306 |
| LCLC-103H | 0.79 | 0.765 | 0.755 | 0.746 | 0.541 | 0.876 | 0.906 | 1.01 | 1.03 | 0.925 | 0.317 | 0.331 | 0.336 | 0.284 | 0.277 | 0.427 | 0.571 | 0.474 | 0.461 | 0.214 |
| LK-2 | 1.28 | 0.947 | 0.897 | 0.618 | 0.309 | 1.17 | 1.1 | 1.08 | 0.984 | 0.946 | 0.268 | 0.295 | 0.255 | 0.18 | 0.271 | 0.291 | 0.349 | 0.306 | 0.297 | 0.189 |
| LOU-NH91 | 0.943 | – | 0.975 | 0.563 | 0.951 | 0.721 | 0.762 | 0.676 | 0.738 | 0.728 | 0.676 | – | 0.712 | 0.455 | 0.474 | 0.568 | 0.597 | 0.551 | 0.525 | 0.354 |
| LU99A | 0.761 | 0.804 | 0.855 | 0.897 | 0.756 | 0.575 | 0.562 | 0.607 | 0.501 | 0.393 | 0.937 | 0.934 | 0.925 | 0.765 | 0.765 | 0.576 | 0.922 | 0.462 | 0.508 | 0.287 |
| LXF-289 | 0.901 | 0.901 | 0.881 | 0.873 | 0.871 | 0.999 | 1.01 | 1.06 | 0.984 | 1.07 | 0.536 | 0.509 | 0.542 | 0.473 | 0.502 | 0.192 | 0.176 | 0.254 | 0.215 | 0.0852 |
| NCI-H522 | – | – | – | – | – | – | – | – | – | – | 0.585 | 0.599 | 0.692 | 0.593 | 0.603 | 0.899 | 1.06 | 0.942 | 1.09 | 0.714 |
| NCI-H1299 | 1.09 | 1.06 | 1.09 | 1.15 | 1.03 | 1.07 | 1.1 | 1.05 | 1.02 | 0.993 | – | – | – | – | – | – | – | – | – | – |
| NCI-H1623 | 0.907 | 0.723 | 0.937 | 0.84 | 0.713 | – | – | – | – | – | 0.641 | 0.427 | 0.619 | 0.548 | 0.497 | 0.511 | 0.523 | 0.526 | 0.524 | 0.422 |
| NCI-H1650 | 1.31 | – | 1.17 | 0.857 | 1.08 | – | – | – | – | – | 0.369 | – | 0.399 | 0.187 | 0.365 | 0.274 | 0.355 | 0.364 | 0.289 | 0.248 |
| NCI-H1703 | 0.37 | 0.329 | 0.342 | 0.278 | 0.331 | 0.362 | 0.306 | 0.296 | 0.386 | 0.267 | – | – | – | – | – | – | – | – | – | – |
| NCI-H1792 | – | – | – | – | – | 0.62 | 0.501 | 0.644 | 0.658 | 0.657 | 0.288 | 0.233 | 0.259 | 0.315 | 0.262 | 0.763 | 0.653 | 0.807 | 0.818 | 0.311 |
| NCI-H2342 | 1.05 | 0.98 | 1.08 | 1.07 | 1.1 | – | – | – | – | – | 0.574 | 0.629 | 0.704 | 0.572 | 0.657 | 0.305 | 0.315 | 0.334 | 0.309 | 0.283 |
| SW 900 | 0.856 | 0.823 | 0.895 | 0.737 | 0.668 | – | – | – | – | – | 0.639 | 0.702 | 0.559 | 0.196 | 0.279 | 0.499 | 0.788 | 0.625 | 0.883 | 0.486 |
